Experimental data from patent publication US10179790B2 (THOMAS HELLEDAYS STIFTELSE FOR MEDICINSK FORSKNING, priority 2014, dated 2019).

The molecules below were run against MTH1 (Homo sapiens, UniProt P36639) (assay: MTH1 enzymatic assay and IC50 value determination (malachite green, 96- and 384-well format)). Details: hydrolysis of dGTP (100 μM), MTH1 6 nM, pyrophosphatase-coupled malachite green, 15 minutes at 22° C.
Format: biochemical
Experimental: MTH1 Enzymatic Assay and IC50 Value Determination
MTH1 catalyzes the hydrolysis of dGTP to dGMP and PPi. By coupling the reaction to pyrophosphatase added in excess PPi is converted to Pi that can be detected by using the malachite green assay reagent. Two different formats were used for IC50 determinations in the enzymatic assay, 96- and 384-well format. 96-Well Method:
Briefly, the compound to be analyzed is diluted in DMSO in a 1:3 dilution series generating 12 different compound concentrations giving a final DMSO concentration of 1% in the assay well. MTH1 diluted in assay buffer (100 mM Tris-acetate, 40 mM NaCl, 10 mM magnesium acetate, 1 mM DTT and 0.005% Tween 20) fortified with E. coli pyrophosphatase (0.2 U/ml) is added to a final concentration of 6 nM. dGTP diluted in assay buffer is added to a final concentration of 100 μM. The reaction mixture is incubated for 15 minutes at 22° C. To 100 μl reaction mixture, 25 μl Malachite green assay regent (0.095% Malachite green in 17% H2SO4, 1.5% Ammonium molybdate, 0.17% Tween 20) is added, followed by incubation with shaking for 15 minutes at 22° C. The absorbance of the assay plate is read at 630 nm using a Hidex Sense Multilabel plate reader. The IC50 value is determined by fitting a dose response curve to the data points using nonlinear regression analysis and the equation Y=Bottom+(Top−Bottom)/(1+10^((Log IC50−X)*HillSlope)), where Y is the read absorbance at 630 nm and X is log [compound].
The compounds to be tested are nano-dispensed, in 11 concentrations, directly in assay plates, with a final DMSO concentration <1%. The protocol and the reaction mixture are the same as for the 96-well assay, with a total reaction volume of 50 μl/well to which 10 μl of Malachite green reagent is added. All additions to the assay plates are made with multidrop.

| Compound | IC50 |
| --- | --- |
| Nc1nc(NCCNc2ccc3c(c2)NC(=O)CO3)cc(-c2cccc(Cl)c2)n1 [Example 37, 6-[(2-{[2-amino-6-(3-chlorophenyl)pyrimidin-4-yl]amino}ethyl)amino]-3,4-dihydro-2H-1,4-benzoxazin-3-one] | < 200 nM |
| Cc1cccc(-c2cc(NCCNc3nc(N)nc4[nH]cnc34)nc(N)n2)c1C [Example 45, 4-N-{2-[(2-amino-9H-purin-6-yl)amino]ethyl}-6-(2,3-dimethylphenyl)pyrimidine-2,4-diamine] | < 200 nM |
| COC(=O)c1cc(C)nc(NCCNc2cc(-c3cccc(C)c3C)nc(N)n2)n1 [Example 50, methyl 2-[(2-{[2-amino-6-(2,3-dimethylphenyl)pyrimidin-4-yl]amino}ethyl)amino]-6-methylpyrimidine-4-carboxylate] | < 200 nM |
| Cc1cccc(-c2cc(NCCNc3ncnc4[nH]cnc34)nc(N)n2)c1C [Example 51, 6-(2,3-dimethylphenyl)-4-N-{2-[(9H-purin-6-yl)amino]ethyl}pyrimidine-2,4-diamine] | < 200 nM |
| Cc1cc(Cl)c(Cl)cc1-c1cc(NCCc2ccc(S(N)(=O)=O)cc2)nc(N)n1 [Example 67, 4-(2-{[2-amino-6-(4,5-dichloro-2-methylphenyl)pyrimidin-4-yl]amino}ethyl)benzene-1-sulfonamide] | < 200 nM |
| COc1cc(C)c(-c2cc(NCCc3ccc(S(N)(=O)=O)cc3)nc(N)n2)cc1Cl [Example 68, 4-(2-{[2-amino-6-(5-chloro-4-methoxy-2-methylphenyl)pyrimidin-4-yl]amino}ethyl)benzene-1-sulfonamide] | < 200 nM |
| Nc1nc(NCCc2ccc(S(N)(=O)=O)cc2)cc(-c2cccc3[nH]ccc23)n1 [Example 69, 4-(2-{[2-amino-6-(1H-indol-4-yl)pyrimidin-4-yl]amino}ethyl)benzene-1-sulfonamide] | < 200 nM |
| Cc1ccc(F)cc1-c1cc(NCCc2ccc(S(N)(=O)=O)cc2)nc(N)n1 [Example 71, 4-(2-{[2-amino-6-(5-fluoro-2-methylphenyl)pyrimidin-4-yl]amino}ethyl)benzene-1-sulfonamide] | < 200 nM |
| NC(=O)c1ccc(CCNc2cc(-c3cccc(Cl)c3F)nc(N)n2)cc1 [Example 80, 4-(2-{[2-amino-6-(3-chloro-2-fluorophenyl)pyrimidin-4-yl]amino}ethyl)benzamide] | < 200 nM |
| Cc1c(Cl)cccc1-c1cc(NCCc2cccc(C(N)=O)c2)nc(N)n1 [Example 88, 3-[2-[[2-amino-6-(3-chloro-2-methyl-phenyl)pyrimidin-4-yl]amino]ethyl]benzamide] | < 200 nM |
| CN1C(=O)COc2ccc(NCCNc3cc(-c4cccc(Cl)c4Cl)nc(N)n3)cc21 [Example 94, 6-[2-[[2-amino-6-(2,3-dichlorophenyl)pyrimidin-4-yl]amino]ethylamino]-4-methyl-1,4-benzoxazin-3-one] | < 200 nM |
| Nc1nc(NCCc2ccc(S(N)(=O)=O)cc2)cc(-c2ccc(Cl)c(Cl)c2Cl)n1 [Example 98, 4-[2-[[2-amino-6-(2,3,4-trichlorophenyl)pyrimidin-4-yl]amino]ethyl]benzenesulfonamide] | < 200 nM |
| COc1c(Cl)ccc(-c2cc(NCCc3ccc(S(N)(=O)=O)cc3)nc(N)n2)c1Cl [Example 99, 4-[2-[[2-amino-6-(2,4-dichloro-3-methoxy-phenyl)pyrimidin-4-yl]amino]ethyl]benzenesulfonamide] | < 200 nM |
| Cc1c(Cl)cccc1-c1cc(NCCn2c([N+](=O)[O-])cnc2C)nc(N)n1 [Example 100, 6-(3-chloro-2-methyl-phenyl)-N4-[2-(2-methyl-5-nitro-imidazol-1-yl)ethyl]pyrimidine-2,4-diamine] | < 200 nM |

Second part, the molecule after the results:

| IC50 | Compound |
| --- | --- |
| < 200 nM | Nc1nc(NCCc2ccc(S(N)(=O)=O)cc2)cc(-c2csc3ccccc23)n1 [Example 102, 4-[2-[[2-amino-6-(benzothiophen-3-yl)pyrimidin-4-yl]amino]ethyl]benzenesulfonamide] |
| < 200 nM | Cc1c(Cl)cccc1-c1cc(NCCc2ccc(C(=N)N)cc2)nc(N)n1 [Example 125, 4-[2-[[2-amino-6-(3-chloro-2-methyl-phenyl)pyrimidin-4-yl]amino]ethyl]benzamidine] |
| < 200 nM | CC(C)(C)OC(=O)N1CC=C(c2cc(NCCc3ccc(S(C)(=O)=O)cc3)nc(N)n2)CC1 [Example 129, tert-butyl 4-(2-amino-6-{[2-(4-methanesulfonylphenyl)ethyl]amino}pyrimidin-4-yl)-1,2,3,6-tetrahydropyridine-1-carboxylate] |
| < 200 nM | Cc1ccc(S(=O)(=O)N2CC=C(c3cc(NCCc4ccc(S(C)(=O)=O)cc4)nc(N)n3)CC2)cc1 [Example 130, 4-N-[2-(4-methanesulfonylphenyl)ethyl]-6-[1-(4-methylbenzenesulfonyl)-1,2,3,6-tetrahydropyridin-4-yl]pyrimidine-2,4-diamine] |
| < 200 nM | CC(C)(C)OC(=O)N1CC=C(c2cc(NCCc3ccc(S(N)(=O)=O)cc3)nc(N)n2)CC1 [Example 131, tert-butyl 4-(2-amino-6-{[2-(4-sulfamoylphenyl)ethyl]amino}pyrimidin-4-yl)-1,2,3,6-tetrahydropyridine-1-carboxylate] |
| < 200 nM | Nc1nc(NCCc2ccc(S(N)(=O)=O)cc2)cc(C2=CCCCCC2)n1 [Example 132, 4-(2-{[2-amino-6-(cyclohept-1-en-1-yl)pyrimidin-4-yl]amino}ethyl)benzene-1-sulfonamide] |
| < 200 nM | Nc1nc(NCCc2ccc(S(N)(=O)=O)cc2)cc(C2CCCCCC2)n1 [Example 134, 4-{2-[(2-amino-6-cycloheptylpyrimidin-4-yl)amino]ethyl}benzene-1-sulfonamide] |
| < 200 nM | CC(=O)N1CC=C(c2cc(NCCc3ccc(S(N)(=O)=O)cc3)nc(N)n2)CC1 [Example 135, 4-(2-{[6-(1-acetyl-1,2,3,6-tetrahydropyridin-4-yl)-2-aminopyrimidin-4-yl]amino}ethyl)benzene-1-sulfonamide] |
| < 200 nM | CC(C)C(=O)N1CC=C(c2cc(NCCc3ccc(S(N)(=O)=O)cc3)nc(N)n2)CC1 [Example 136, 4-[2-({2-amino-6-[1-(2-methylpropanoyl)-1,2,3,6-tetrahydropyridin-4-yl]pyrimidin-4-yl}amino)ethyl]benzene-1-sulfonamide] |
| < 200 nM | CS(=O)(=O)N1CC=C(c2cc(NCCc3ccc(S(N)(=O)=O)cc3)nc(N)n2)CC1 [Example 137, 4-(2-{[2-amino-6-(1-methanesulfonyl-1,2,3,6-tetrahydropyridin-4-yl)pyrimidin-4-yl]amino}ethyl)benzene-1-sulfonamide] |
| < 200 nM | Nc1nc(NCCc2ccc(S(N)(=O)=O)cc2)cc(C2=CCN(C(=O)c3ccno3)CC2)n1 [Example 138, 4-[2-({2-amino-6-[1-(1,2-oxazole-5-carbonyl)-1,2,3,6-tetrahydropyridin-4-yl]pyrimidin-4-yl}amino)ethyl]benzene-1-sulfonamide] |
| < 200 nM | Nc1nc(NCCc2ccc(S(N)(=O)=O)cc2)cc(C2=CCN(C(=O)C3CCCC3)CC2)n1 [Example 139, 4-(2-{[2-amino-6-(1-cyclopentanecarbonyl-1,2,3,6-tetrahydropyridin-4-yl)pyrimidin-4-yl]amino}ethyl)benzene-1-sulfonamide] |
| < 200 nM | Nc1nc(NCCc2ccc(S(N)(=O)=O)cc2)cc(C2=CCN(C(=O)CC3CCCC3)CC2)n1 [Example 140, 4-[2-({2-amino-6-[1-(2-cyclopentylacetyl)-1,2,3,6-tetrahydropyridin-4-yl]pyrimidin-4-yl}amino)ethyl]benzene-1-sulfonamide] |
| < 200 nM | Cc1ccc(C(=O)N2CC=C(c3cc(NCCc4ccc(S(N)(=O)=O)cc4)nc(N)n3)CC2)cc1 [Example 141, 4-[2-({2-amino-6-[1-(4-methylbenzoyl)-1,2,3,6-tetrahydropyridin-4-yl]pyrimidin-4-yl}amino)ethyl]benzene-1-sulfonamide] |
| < 200 nM | Cc1c(Cl)cccc1-c1cc(NCCNc2ccc(C(N)=O)cn2)nc(N)n1 [Example 147] |
| < 200 nM | Cc1c(Cl)cccc1-c1cc(NCCNc2ccc(NC(=O)NC(C)(C)C)cn2)nc(N)n1 [Example 156, 1-[6-[2-[[2-amino-6-(3-chloro-2-methyl-phenyl)pyrimidin-4-yl]amino]ethylamino]-3-pyridyl]-3-tert-butyl-urea] |
| < 200 nM | Cc1c(Cl)cccc1-c1cc(NCCNc2ccc(NC(=O)OC(C)(C)C)cn2)nc(N)n1 [Example 157, tert-butyl N-[6-[2-[[2-amino-6-(3-chloro-2-methyl-phenyl)pyrimidin-4-yl]amino]ethylamino]-3-pyridyl]carbamate] |
| < 200 nM | Cc1c(Cl)cccc1-c1cc(NCCNc2nc(N)nc(N)n2)nc(N)n1 [Example 158, N2-[2-[[2-amino-6-(3-chloro-2-methyl-phenyl)pyrimidin-4-yl]amino]ethyl]-1,3,5-triazine-2,4,6-triamine] |
